In patent US6706663B2, “Herbicidal 3-heterocyclic substituted benzisothiazole and benzisoxazole compounds” (Wyeth, priority 2000, dated 2004):

Assays:
SETVI (Setaria viridis) [1] = test: Preemergence herbicidal evaluation; assay type: in vivo, (L.) Beau; settings: preemergence, rated 4-5 weeks after treatment
Method in brief: (§1)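 Scores (0–9) reflect visual comparison with control plants for stand, vigor, malformation, size and chlorosis. Seeds in potting soil received a post-planting spray of compound in aqueous acetone and grew in a greenhouse until assessment 4–5 weeks later.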

[2] = system: ECHCG (Echinochloa crus-galli); test: Preemergence herbicidal evaluation; assay type: in vivo, (L.) Beau; settings: preemergence, rated 4-5 weeks after treatment
Method in brief: as §1

GALAP (Galium aparine) [3] = test: Preemergence herbicidal evaluation; assay type: in vivo; settings: preemergence, rated 4-5 weeks after treatment
Method in brief: as §1

[4] = system: CHEAL (Chenopodium album); test: Preemergence herbicidal evaluation; assay type: in vivo, L.; settings: preemergence, rated 4-5 weeks after treatment
Method in brief: as §1

[5] = system: AMBEL (Ambrosia artemisifolia); test: Preemergence herbicidal evaluation; assay type: in vivo, L.; settings: preemergence, rated 4-5 weeks after treatment
Method in brief: as §1

[6] = system: CASOB (Cassia obtusifolia); test: Preemergence herbicidal evaluation; assay type: in vivo, L.; settings: preemergence, rated 4-5 weeks after treatment
Method in brief: as §1

ORYSAT (Rice, Tebonnet) [7] = test: Postemergence herbicidal evaluation; assay type: in vivo, Oryza sativa, (L.) Tebonnet
Method in brief: (§2)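 Seedlings grown about two weeks in flats, sprayed, then kept under standard greenhouse care. Rated visually 4–5 weeks after treatment on a 0–9 scale (stand, vigour, malformation, size, chlorosis, overall appearance) relative to untreated control; repeat tests averaged.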

[8] = system: SAGPY (Sagittaria pygmaea); test: Flooded paddy, preemergence weed control; assay type: in vivo, L.; settings: rated 3-4 weeks after treatment, 0-9 rating scale
Method in brief: (§3)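 Silt loam, sowing depth ≤0.5 cm; permanent flood 1.5–3 cm above soil; greenhouse culture after treatment. Readout: 0-9 visual scale (stand, vigor, malformation, size, chlorosis, appearance) vs control.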

[9] = system: CHEAL (Chenopodium album); test: Postemergence herbicidal evaluation; assay type: in vivo, L.
Method in brief: as §2

[10] = system: AMBEL (Ambrosia artemisifolia); test: Postemergence herbicidal evaluation; assay type: in vivo, L.
Method in brief: as §2

[11] = system: CASOB (Cassia obtusifolia); test: Postemergence herbicidal evaluation; assay type: in vivo, L.
Method in brief: as §2

[12] = system: IPOHE (Ipomoea hederacea); test: Postemergence herbicidal evaluation; assay type: in vivo, (L.) Jacq.
Method in brief: as §2

[13] = system: MOOVA (Monochoria vaginalis); test: Flooded paddy, preemergence weed control; assay type: in vivo, Presl.; settings: rated 3-4 weeks after treatment, 0-9 rating scale
Method in brief: as §3

[14] = system: CYPSE (Cyperus serotinus); test: Flooded paddy, preemergence weed control; assay type: in vivo, Rottb.; settings: rated 3-4 weeks after treatment, 0-9 rating scale
Method in brief: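 Seeds or propagules were planted 0.5 cm deep in silt loam and flooded to 1.5–3 cm. Compounds in 50/50 v/v aqueous/acetone were pipetted into the flood water at about 0.0080 to 0.1250 kg/ha. After 3–4 weeks in the greenhouse, effect was rated visually on a 0–9 scale versus untreated control.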

GALAP (Galium aparine) [15] = test: Postemergence herbicidal evaluation; assay type: in vivo
Method in brief: as §2

SETVI (Setaria viridis) [16] = test: Postemergence herbicidal evaluation; assay type: in vivo, (L.) Beau
Method in brief: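 Ratings use a 0-9 visual scale covering stand, vigor, malformation, size, chlorosis and appearance versus a control, scored 4-5 weeks post-spray. Roughly two-week-old seedlings received about 0.0040-1.000 kg/ha active, applied in 50/50 acetone/water with 0.5% TWEEN 20. Multiple tests per compound were averaged.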

[17] = system: ABUTH (Abutilon theophrasti); test: Postemergence herbicidal evaluation; assay type: in vivo, Medic.
Method in brief: as §2

ORYSAT (Rice, Tebonnet) [18] = test: Preemergence herbicidal evaluation; assay type: in vivo, Oryza sativa, (L.) Tebonnet; settings: preemergence, rated 4-5 weeks after treatment
CYPIR (Cyperus iria) = test: Flooded paddy, preemergence weed control; assay type: in vivo; settings: rated 3-4 weeks after treatment, 0-9 rating scale
Method in brief: as §3

[19] = system: TRZAWR (Wheat, Winter, cv Riband); test: Postemergence herbicidal evaluation; assay type: in vivo, Triticum aestivum
Method in brief: as §2

Cc1cccnc1-c1nsc2ccc(-n3c(=O)cc(C(F)(F)F)n(C)c3=O)cc12 [Compound 19, 1-methyl-3-[3-(3-methyl-2-pyridyl)-1,2-benzisothiazol-5-yl]-6-(trifluoromethyl)uracil]
SETVI preemergence herbicidal rating (SETVI (Setaria viridis) [1]; Rate 0.0620 kg/ha): 9.0
SETVI preemergence herbicidal rating (SETVI (Setaria viridis) [1]; Rate 0.1250 kg/ha): 9.0
SETVI preemergence herbicidal rating (SETVI (Setaria viridis) [1]; Rate 0.2500 kg/ha): 9.0
ECHCG preemergence herbicidal rating ([2]; Rate 0.0620 kg/ha): 9.0
ECHCG preemergence herbicidal rating ([2]; Rate 0.1250 kg/ha): 9.0
ECHCG preemergence herbicidal rating ([2]; Rate 0.2500 kg/ha): 9.0
GALAP preemergence herbicidal rating (GALAP (Galium aparine) [3]; Rate 0.0620 kg/ha): 0.5
GALAP preemergence herbicidal rating (GALAP (Galium aparine) [3]; Rate 0.1250 kg/ha): 6.0
GALAP preemergence herbicidal rating (GALAP (Galium aparine) [3]; Rate 0.2500 kg/ha): 9.0
CHEAL preemergence herbicidal rating ([4]; Rate 0.0620 kg/ha): 9.0
CHEAL preemergence herbicidal rating ([4]; Rate 0.1250 kg/ha): 9.0
CHEAL preemergence herbicidal rating ([4]; Rate 0.2500 kg/ha): 9.0
AMBEL preemergence herbicidal rating ([5]; Rate 0.0620 kg/ha): 6.7
AMBEL preemergence herbicidal rating ([5]; Rate 0.1250 kg/ha): 9.0
AMBEL preemergence herbicidal rating ([5]; Rate 0.2500 kg/ha): 9.0
CASOB preemergence herbicidal rating ([6]; Rate 0.0620 kg/ha): 4.7
CASOB preemergence herbicidal rating ([6]; Rate 0.1250 kg/ha): 5.7
CASOB preemergence herbicidal rating ([6]; Rate 0.2500 kg/ha): 8.3
Postemergence herbicidal rating, ORYSAT (ORYSAT (Rice, Tebonnet) [7]; rate 0.0320 kg/ha): 3.3
Postemergence herbicidal rating, ORYSAT (ORYSAT (Rice, Tebonnet) [7]; rate 0.0620 kg/ha): 3.5
herbicidal rating, SAGPY ([8]; rate 0.0080 kg/ha): 0.0
herbicidal rating, SAGPY ([8]; rate 0.0320 kg/ha): 2.5
herbicidal rating, SAGPY ([8]; rate 0.1250 kg/ha): 7.0
Postemergence herbicidal rating, CHEAL ([9]; rate 0.0320 kg/ha): 8.0
Postemergence herbicidal rating, CHEAL ([9]; rate 0.0620 kg/ha): 9.0
Postemergence herbicidal rating, AMBEL ([10]; rate 0.0320 kg/ha): 9.0
Postemergence herbicidal rating, AMBEL ([10]; rate 0.0620 kg/ha): 9.0
Postemergence herbicidal rating, CASOB ([11]; rate 0.0320 kg/ha): 1.5
Postemergence herbicidal rating, CASOB ([11]; rate 0.0620 kg/ha): 5.0
Postemergence herbicidal rating, IPOHE ([12]; rate 0.0320 kg/ha): 8.0
Postemergence herbicidal rating, IPOHE ([12]; rate 0.0620 kg/ha): 9.0
herbicidal rating, MOOVA ([13]; rate 0.0080 kg/ha): 4.0
herbicidal rating, MOOVA ([13]; rate 0.0320 kg/ha): 9.0
herbicidal rating, MOOVA ([13]; rate 0.1250 kg/ha): 9.0
herbicidal rating, CYPSE ([14]; rate 0.0080 kg/ha): 0.0
herbicidal rating, CYPSE ([14]; rate 0.0320 kg/ha): 0.0
herbicidal rating, CYPSE ([14]; rate 0.1250 kg/ha): 6.5
Postemergence herbicidal rating, GALAP (GALAP (Galium aparine) [15]; rate 0.0320 kg/ha): 3.5
Postemergence herbicidal rating, GALAP (GALAP (Galium aparine) [15]; rate 0.0620 kg/ha): 6.0
Postemergence herbicidal rating, SETVI (SETVI (Setaria viridis) [16]; rate 0.0320 kg/ha): 4.0
Postemergence herbicidal rating, SETVI (SETVI (Setaria viridis) [16]; rate 0.0620 kg/ha): 6.5
Postemergence herbicidal rating, ABUTH ([17]; rate 0.0320 kg/ha): 9.0
Postemergence herbicidal rating, ABUTH ([17]; rate 0.0620 kg/ha): 9.0
ORYSAT preemergence herbicidal rating (ORYSAT (Rice, Tebonnet) [18]; Rate 0.0620 kg/ha): 5.3
ORYSAT preemergence herbicidal rating (ORYSAT (Rice, Tebonnet) [18]; Rate 0.1250 kg/ha): 7.0
ORYSAT preemergence herbicidal rating (ORYSAT (Rice, Tebonnet) [18]; Rate 0.2500 kg/ha): 8.0
herbicidal rating, CYPIR (CYPIR (Cyperus iria); rate 0.0080 kg/ha): 0.0
herbicidal rating, CYPIR (CYPIR (Cyperus iria); rate 0.0320 kg/ha): 5.0
herbicidal rating, CYPIR (CYPIR (Cyperus iria); rate 0.1250 kg/ha): 9.0
Postemergence herbicidal rating, TRZAWR ([19]; rate 0.0320 kg/ha): 4.0
Postemergence herbicidal rating, TRZAWR ([19]; rate 0.0620 kg/ha): 4.3
